In US11179412B2, “Methods of treating conditions involving elevated inflammatory response” (University of Pittsburgh—Of the Commonwealth System of …, priority 2017, dated 2021):
“Also recorded” adds a separate entry of the source. Blank lines part the entries; values can stand above or below the compound they belong to.

Legend:
[1] = system: STING activation (IFNβ release) in iBMDMs; assay: IFNβ release ELISA after STING ligand (or LPS) stimulation, iBMDMs; type: cell-based, mouse; details: iBMDMs; 3′3′-cGAMP 10 μg/ml, 16 hours; compound 10 μM
Outline: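 IFNβ released into the medium was quantified by ELISA (mouse or human kit) after iBMDM stimulation with the canonical STING agonist 3′3′-cGAMP or with LPS.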

[2] = system: STING signaling (TBK1, IRF3, p65, ALK, EGFR, AKT phosphorylation) in iBMDMs; assay: Western blot of STING pathway protein phosphorylation, iBMDMs; type: cell-based, mouse; details: 16 hours, 10 μM; for STING ligand-induced phosphorylation of TBK1, IRF3, and p65: 3′3′-cGAMP or c-di-AMP 10 μg/ml; for 3′3′-cGAMP- or c-di-AMP-induced phosphorylation of ALK, EGFR, and AKT: ligand 10 μg/ml
Procedure: (§1) For immunoblotting, cells were lysed in Cell Lysis Buffer (#9803, Cell Signaling Technology) with protease inhibitor cocktail (Promega), phosphatase inhibitor cocktail (Sigma), and 1 mM Na3VO4 (70). Cleared lysates were resolved by SDS-PAGE (#3450124, Bio-Rad) and then transferred onto PVDF membranes (#1704273, Bio-Rad). The membranes were blocked with Tris-buffered saline Tween 20 (TBST) containing 5% skim milk for 1 h at room temperature and then incubated with the indicated primary antibodies (1:1000-1:5000) overnight at 4° C. After being washed with TBST, the membranes were incubated with an HRP-linked anti-mouse IgG secondary antibody (#7076, Cell Signaling Technology) or HRP-linked anti-rabbit IgG secondary antibody (#7074, Cell Signaling Technology) for 1 h at room temperature. The membranes were washed three times in TBST and then visualized and analyzed with a ChemiDoc Touch Imaging System (#1708370, Bio-Rad). The intensities of bands were analyzed with Image Lab software.

[3] = system: STING signaling (TBK1, IRF3, p65, ALK, EGFR, AKT phosphorylation) in RAW264.7 cells; assay: Western blot of STING pathway protein phosphorylation, RAW264.7; type: cell-based, mouse; details: 16 hours, 10 μM; for STING ligand-induced phosphorylation of TBK1, IRF3, and p65: 3′3′-cGAMP or c-di-AMP 10 μg/ml; for 3′3′-cGAMP- or c-di-AMP-induced phosphorylation of ALK, EGFR, and AKT: ligand 10 μg/ml
Procedure: as §1

[4] = system: STING signaling (TBK1, IRF3, p65, ALK, EGFR, AKT phosphorylation) in THP1 cells; assay: Western blot of STING pathway protein phosphorylation, THP1; type: cell-based, human; details: 16 hours, 10 μM; for STING ligand-induced phosphorylation of TBK1, IRF3, and p65: 3′3′-cGAMP or c-di-AMP 10 μg/ml; for 3′3′-cGAMP- or c-di-AMP-induced phosphorylation of ALK, EGFR, and AKT: ligand 10 μg/ml
Procedure: as §1

[5] = biological target: T1, interaction between ALK and EGFR (Mus musculus, UniProt P97793+Q01279); assay: IP analysis of the interaction between ALK and EGFR, iBMDMs; type: cell-based; details: 3′3′-cGAMP or c-di-AMP 10 μg/ml, 16 hours, 10 μM
T1 construct: endogenous in cells; host or cells: iBMDMs
Procedure: Concentrations of proteins in the supernatant were determined by bicinchoninic acid assay. […] Following incubation, agarose/sepharose beads were washed extensively with PBS and proteins were eluted by boiling in 2× sodium dodecyl sulfate (SDS) sample buffer before SDS-PAGE electrophoresis.

[6] = biological target: T2, interaction between ALK and EGFR (Homo sapiens, UniProt P00533+Q9UM73); assay: IP analysis of the interaction between ALK and EGFR, THP1; type: cell-based; details: 3′3′-cGAMP or c-di-AMP 10 μg/ml, 16 hours, 10 μM
T2 construct: endogenous in cells; host or cells: THP1 cells
Procedure: For immunoprecipitation, cells were lysed at 4° C. in ice-cold modified radioimmunoprecipitation lysis buffer (#9806, Cell Signaling Technology) and cell lysates were cleared by centrifugation (12,000 g, 10 min). Concentrations of proteins in the supernatant were determined by bicinchoninic acid assay. Prior to immunoprecipitation, samples containing equal amounts of proteins were pre-cleared with Protein A/G agarose/sepharose beads (#20423, Thermo Fisher Scientific Inc.) (4° C., 3 h) and subsequently incubated with various irrelevant IgG or anti-ALK (#ab190934, Abcam) or anti-EGFR antibodies (#2232S, Cell Signaling Technology) in the presence of Protein A/G agarose/sepharose beads overnight at 4° C. with gentle shaking. Following incubation, agarose/sepharose beads were washed extensively with PBS and proteins were eluted by boiling in 2× sodium dodecyl sulfate (SDS) sample buffer before SDS-PAGE electrophoresis.

[7] = system: STING activation (IFNβ release) in pPMs; assay: IFNβ release ELISA, primary peritoneal macrophages (pPMs); type: cell-based, mouse; details: mouse pPMs; 3′3′-cGAMP 10 μg/ml, 16 hours; compound 10 μM
Procedure: Mouse pPMs were isolated from C57BL/6J mice as previously described (69). In brief, eight-week-old female or male C57BL/6J mice were injected with 3.0% thioglycollate medium (2 mL/mouse) into the peritoneum. Three days after injection, mice were sacrificed and injected with 3 mL of 0.05% EDTA-PBS into the peritoneum to harvest peritoneal macrophages. Collected cells were centrifuged at 1000 rpm for 5 min at 4° C., and the cell pellet was washed with PBS and centrifuged again. The cell pellet was then suspended in Dulbecco's Modified Eagle Medium supplemented with 10% FBS and 1× Penicillin-Streptomycin and cultured in a culture dish.
(§2) Macrophages or monocytes were treated with 3′3′-cGAMP (10 μg/ml, Invitrogen) for 16 hours in the absence or presence of one compound (10 μM) from the Target-selective Inhibitory Library (#L3500, Selleck Chemicals). Commercially available enzyme-linked immunosorbent assay (ELISA) kits were used to measure the concentrations of mouse IFNβ (Thermo Fisher Scientific) or human IFNβ (Thermo Fisher Scientific) in culture medium according to the manufacturer's instructions.

[8] = system: STING activation (IFNβ release) in pPBMCs; assay: IFNβ release ELISA, primary peripheral blood mononuclear cells (pPBMCs); type: cell-based; details: human pPBMCs; 3′3′-cGAMP 10 μg/ml, 16 hours; compound 10 μM
Procedure: as §2

iBMDMs = assay: Cell viability assay (CCK-8), iBMDMs; type: cell-based, mouse; details: 3′3′-cGAMP 10 μg/ml, ALK inhibitor 10 μM, 16 hours
Procedure: (§3) Cells were seeded into 96-well plates and incubated with the indicated treatments. Subsequently, 100 μl fresh medium was added to cells containing 10 μl Cell Counting Kit-8 (CCK-8) solutions (Dojindo Laboratories) and incubated for 1 h (37° C., 5% CO2). Absorbance at 450 nm was measured using a microplate reader (Tecan).

pPMs = assay: Cell viability assay (CCK-8), pPMs; type: cell-based, mouse; details: 3′3′-cGAMP 10 μg/ml, ALK inhibitor 10 μM, 16 hours
Procedure: as §3

RAW264.7 cells = assay: Cell viability assay (CCK-8), RAW264.7; type: cell-based, mouse; details: 3′3′-cGAMP 10 μg/ml, ALK inhibitor 10 μM, 16 hours
Procedure: as §3

THP1 cells = assay: Cell viability assay (CCK-8), THP1; type: cell-based, human; details: 3′3′-cGAMP 10 μg/ml, ALK inhibitor 10 μM, 16 hours
Procedure: as §3

T1 sequence (P97793 19-1621): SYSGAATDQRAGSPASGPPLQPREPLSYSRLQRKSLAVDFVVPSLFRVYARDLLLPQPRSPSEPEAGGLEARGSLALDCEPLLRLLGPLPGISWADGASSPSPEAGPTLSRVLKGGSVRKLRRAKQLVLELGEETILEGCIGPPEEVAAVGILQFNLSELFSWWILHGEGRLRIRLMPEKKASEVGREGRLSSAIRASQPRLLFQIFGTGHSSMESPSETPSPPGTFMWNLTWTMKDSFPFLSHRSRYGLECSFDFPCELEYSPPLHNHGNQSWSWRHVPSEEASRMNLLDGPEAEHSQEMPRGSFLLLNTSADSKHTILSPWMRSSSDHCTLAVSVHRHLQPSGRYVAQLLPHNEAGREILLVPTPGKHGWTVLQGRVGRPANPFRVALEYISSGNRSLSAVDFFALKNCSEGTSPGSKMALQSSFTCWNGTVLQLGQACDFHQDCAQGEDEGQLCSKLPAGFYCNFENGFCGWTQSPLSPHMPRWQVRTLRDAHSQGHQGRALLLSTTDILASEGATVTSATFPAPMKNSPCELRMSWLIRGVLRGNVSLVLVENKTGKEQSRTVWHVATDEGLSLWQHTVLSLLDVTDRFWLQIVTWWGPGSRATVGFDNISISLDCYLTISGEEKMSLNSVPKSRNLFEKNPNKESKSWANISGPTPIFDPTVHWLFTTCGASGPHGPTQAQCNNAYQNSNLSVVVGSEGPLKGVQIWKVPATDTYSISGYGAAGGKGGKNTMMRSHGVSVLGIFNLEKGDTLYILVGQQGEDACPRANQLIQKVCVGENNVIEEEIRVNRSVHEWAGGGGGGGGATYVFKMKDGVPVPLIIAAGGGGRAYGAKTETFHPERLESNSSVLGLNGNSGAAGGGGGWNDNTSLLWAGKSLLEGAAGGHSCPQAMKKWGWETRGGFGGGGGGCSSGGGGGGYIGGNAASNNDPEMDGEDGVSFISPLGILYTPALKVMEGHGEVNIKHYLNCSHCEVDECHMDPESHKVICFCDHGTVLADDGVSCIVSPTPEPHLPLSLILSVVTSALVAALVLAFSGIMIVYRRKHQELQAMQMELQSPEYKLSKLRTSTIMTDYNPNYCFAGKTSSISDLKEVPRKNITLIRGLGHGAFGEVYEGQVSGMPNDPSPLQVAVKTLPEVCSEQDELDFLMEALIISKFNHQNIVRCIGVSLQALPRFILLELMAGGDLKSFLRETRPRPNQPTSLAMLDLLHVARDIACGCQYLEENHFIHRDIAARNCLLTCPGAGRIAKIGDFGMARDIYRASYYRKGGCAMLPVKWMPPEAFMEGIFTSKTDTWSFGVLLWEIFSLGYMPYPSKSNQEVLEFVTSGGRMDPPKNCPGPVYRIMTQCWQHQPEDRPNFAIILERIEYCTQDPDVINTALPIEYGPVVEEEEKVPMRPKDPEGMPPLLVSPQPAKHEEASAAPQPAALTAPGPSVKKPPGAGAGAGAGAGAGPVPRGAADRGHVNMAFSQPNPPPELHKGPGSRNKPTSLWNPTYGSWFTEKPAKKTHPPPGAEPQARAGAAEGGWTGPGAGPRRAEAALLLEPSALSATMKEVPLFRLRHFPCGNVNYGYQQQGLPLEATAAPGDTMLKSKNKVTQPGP
T1 sequence (Q01279 25-1210): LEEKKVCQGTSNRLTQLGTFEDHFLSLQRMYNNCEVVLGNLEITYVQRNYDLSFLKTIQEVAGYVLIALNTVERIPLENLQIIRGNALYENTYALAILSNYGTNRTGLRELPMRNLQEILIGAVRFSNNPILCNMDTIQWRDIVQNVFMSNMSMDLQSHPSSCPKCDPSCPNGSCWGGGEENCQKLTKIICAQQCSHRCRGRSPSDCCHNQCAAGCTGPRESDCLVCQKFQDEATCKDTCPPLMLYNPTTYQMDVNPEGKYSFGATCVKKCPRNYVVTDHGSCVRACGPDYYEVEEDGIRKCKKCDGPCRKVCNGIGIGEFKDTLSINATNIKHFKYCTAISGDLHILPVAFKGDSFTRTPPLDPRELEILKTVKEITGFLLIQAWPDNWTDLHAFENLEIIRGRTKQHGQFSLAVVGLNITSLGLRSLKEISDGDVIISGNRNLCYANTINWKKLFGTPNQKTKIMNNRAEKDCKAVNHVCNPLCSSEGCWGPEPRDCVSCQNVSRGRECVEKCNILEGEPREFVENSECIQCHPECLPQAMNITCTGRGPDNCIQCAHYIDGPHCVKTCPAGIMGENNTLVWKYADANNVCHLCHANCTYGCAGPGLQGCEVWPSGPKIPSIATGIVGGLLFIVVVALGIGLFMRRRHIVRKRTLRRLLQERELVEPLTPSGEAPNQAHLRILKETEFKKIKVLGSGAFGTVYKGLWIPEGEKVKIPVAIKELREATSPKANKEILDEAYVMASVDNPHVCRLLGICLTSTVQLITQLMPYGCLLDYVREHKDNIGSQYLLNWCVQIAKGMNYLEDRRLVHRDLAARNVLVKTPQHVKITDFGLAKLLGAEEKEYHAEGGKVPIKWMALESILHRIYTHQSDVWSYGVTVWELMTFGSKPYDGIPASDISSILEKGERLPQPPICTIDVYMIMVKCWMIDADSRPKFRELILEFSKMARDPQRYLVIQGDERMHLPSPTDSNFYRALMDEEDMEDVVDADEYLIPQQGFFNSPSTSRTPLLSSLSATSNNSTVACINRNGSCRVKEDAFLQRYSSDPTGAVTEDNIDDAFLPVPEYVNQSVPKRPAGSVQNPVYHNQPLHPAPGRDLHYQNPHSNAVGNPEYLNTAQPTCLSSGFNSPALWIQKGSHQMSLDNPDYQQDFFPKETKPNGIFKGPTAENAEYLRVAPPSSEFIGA

interaction between ALK and EGFR [5]: reduced
interaction between ALK and EGFR [6]: reduced
Structure (SMILES): C#Cc1cccc(Nc2ncnc3cc(OCCOC)c(OCCO)cc23)c1 [OSI-420]
fold increase in IFN-β release [1]: 0.14 fold
STING ligand-induced phosphorylation of TBK1, IRF3, and p65 [2]: diminished
3′3′-cGAMP- or c-di-AMP-induced phosphorylation of ALK, EGFR, and AKT [2]: attenuated
STING ligand-induced phosphorylation of TBK1, IRF3, and p65 [3]: diminished
3′3′-cGAMP- or c-di-AMP-induced phosphorylation of ALK, EGFR, and AKT [3]: attenuated
STING ligand-induced phosphorylation of TBK1, IRF3, and p65 [4]: diminished
3′3′-cGAMP- or c-di-AMP-induced phosphorylation of ALK, EGFR, and AKT [4]: attenuated

Structure (SMILES): CC(C)NC[C@@H](C(=O)N1CCN(c2ncnc3c2[C@H](C)C[C@H]3O)CC1)c1ccc(Cl)cc1 [GDC-0068]
fold increase in IFN-β release [1]: 0.86 fold
STING ligand-induced phosphorylation of TBK1, IRF3, and p65 [2]: diminished
3′3′-cGAMP- or c-di-AMP-induced phosphorylation of ALK, EGFR, and AKT [2]: only blocked the phosphorylation of AKT, but not ALK or EGFR
STING ligand-induced phosphorylation of TBK1, IRF3, and p65 [3]: diminished
3′3′-cGAMP- or c-di-AMP-induced phosphorylation of ALK, EGFR, and AKT [3]: only blocked the phosphorylation of AKT, but not ALK or EGFR
STING ligand-induced phosphorylation of TBK1, IRF3, and p65 [4]: diminished
3′3′-cGAMP- or c-di-AMP-induced phosphorylation of ALK, EGFR, and AKT [4]: only blocked the phosphorylation of AKT, but not ALK or EGFR

Structure (SMILES): Cl.NC(=O)c1cnc(N[C@@H]2CCCC[C@@H]2N)nc1Nc1cccc(-n2nccn2)c1 [PRT062607 (P505-15, BIIB057) HCl]
3′3′-cGAMP-induced IFNβ release [1]: blocked
fold increase in IFN-β release [1]: 0.07 fold
3′3′-cGAMP-induced IFNβ release [7]: confirmed their inhibitory properties
3′3′-cGAMP-induced IFNβ release [8]: confirmed their inhibitory properties

Structure (SMILES): C[C@@H]1CN(CC(=O)Nc2ccc3c(c2)Cc2cccc(-c4cc(=O)cc(N5CCOCC5)o4)c2S3)C[C@H](C)O1 [KU-60019]
3′3′-cGAMP-induced IFNβ release [1]: blocked
fold increase in IFN-β release [1]: 0.06 fold
3′3′-cGAMP-induced IFNβ release [7]: confirmed their inhibitory properties
3′3′-cGAMP-induced IFNβ release [8]: confirmed their inhibitory properties

Structure (SMILES): O=C(/C=C\n1cnc(-c2cc(C(F)(F)F)cc(C(F)(F)F)c2)n1)NNc1cnccn1 [KPT-330]
3′3′-cGAMP-induced IFNβ release [1]: blocked
fold increase in IFN-β release [1]: 0.05 fold
3′3′-cGAMP-induced IFNβ release [7]: confirmed their inhibitory properties
3′3′-cGAMP-induced IFNβ release [8]: confirmed their inhibitory properties

Structure (SMILES): COc1cc(N2CCC(N3CCN(C)CC3)CC2)ccc1Nc1ncc(Cl)c(Nc2ccccc2P(C)(C)=O)n1 [AP26113]
fold increase in IFN-β release [1]: 0.19 fold
cell viability (iBMDMs): did not affect cell viability
cell viability (pPMs): did not affect cell viability
cell viability (RAW264.7 cells): did not affect cell viability
cell viability (THP1 cells): did not affect cell viability

Structure (SMILES): COc1cc(N2CCC(N)CC2)ccc1Nc1ncc(Cl)c(-c2c[nH]c3ccccc23)n1 [AZD3463]
3′3′-cGAMP-induced IFNβ release [1]: blocked; also recorded: diminished
fold increase in IFN-β release [1]: 0.05 fold
3′3′-cGAMP-induced IFNβ release [7]: confirmed their inhibitory properties
3′3′-cGAMP-induced IFNβ release [8]: confirmed their inhibitory properties
cell viability (iBMDMs): exhibited cytotoxicity
cell viability (pPMs): exhibited cytotoxicity
cell viability (RAW264.7 cells): exhibited cytotoxicity
cell viability (THP1 cells): exhibited cytotoxicity

Structure (SMILES): COc1cc(-n2c(=S)[nH]c3ccccc3c2=O)c(Cl)cc1Cl [Mdivi-1]
fold increase in IFN-β release [1]: 2.10 fold

Structure (SMILES): O=C(O)/C(S)=C/c1c[nH]c2ccc(F)cc12 [PD 151746]
fold increase in IFN-β release [1]: 1.92 fold

Structure (SMILES): CC(C)(C)c1cc(/C=C(\C#N)C(N)=S)cc(C(C)(C)C)c1O [Tyrphostin AG 879]
fold increase in IFN-β release [1]: 1.99 fold

Structure (SMILES): COCCn1c2c([n+](Cc3cnccn3)c1C)C(=O)c1ccccc1C2=O [YM155 (Sepantronium Bromide), Sepantronium Bromide]
fold increase in IFN-β release [1]: 0.30 fold

Structure (SMILES): CNC(=O)c1cc(Oc2ccc(NC(=O)Nc3ccc(Cl)c(C(F)(F)F)c3)cc2)ccn1 [Sorafenib]
fold increase in IFN-β release [1]: 0.91 fold

Structure (SMILES): CC(C)Oc1ccc(-c2cnc3c(-c4ccnc5ccccc45)cnn3c2)cc1 [DMH1]
fold increase in IFN-β release [1]: 1.43 fold

Structure (SMILES): CS(=O)(=O)c1ccc(-c2cnc(N)c(C(=O)Nc3ccccc3)n2)cc1 [VE-821]
fold increase in IFN-β release [1]: 0.45 fold

Structure (SMILES): Cc1c(NC(=O)c2ccc(C(C)(C)C)cc2)cccc1-c1cn(C)c(=O)c(Nc2ccc(C(=O)N3CCOCC3)cc2)n1 [CG11746]
fold increase in IFN-β release [1]: 0.16 fold

Structure (SMILES): CN1CCN(c2nc(C3=C(c4c[nH]c5ccccc45)C(=O)NC3=O)c3ccccc3n2)CC1 [Sotrastaurin]
fold increase in IFN-β release [1]: 0.59 fold

Structure (SMILES): Cl.Cl.O=S(=O)(NCCNC/C=C/c1ccc(Br)cc1)c1cccc2cnccc12 [H 89 2HCl]
fold increase in IFN-β release [1]: 1.91 fold
